From ChEMBL document CHEMBL1201862, “PubChem BioAssay data set” (2004)
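Grown in 96-well plates, cells were treated for 48 hours with each compound at five concentrations. Insufficient inhibition: endpoint recorded as highest concentration tested. The concentration for 50% growth inhibition is given as GI50.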 Calls of active or inactive are those of the source. No stated cut-off is given here; in the data, active = GI50 up to about 1.1 µM and inactive = higher.

Columns and labels:
Experiment in all cases: NCI anticancer screen, dose series, 48 h
M14 = system: M14
RXF 393 = system: RXF 393
UACC-257 = system: UACC-257
OVCAR-3 = system: OVCAR-3
DU-145 = system: DU-145
NCI-H23 = system: NCI-H23
SK-MEL-2 = system: SK-MEL-2
SW-620 = system: SW-620
A498 = system: A498
OVCAR-8 = system: OVCAR-8
ACHN = system: ACHN
HOP-62 = system: HOP-62
SF-539 = system: SF-539
MOLT-4 = system: MOLT-4
HL-60 = system: HL-60
TK-10 = system: TK-10
MCF7 = system: MCF7
SK-MEL-5 = system: SK-MEL-5
UO-31 = system: UO-31

Measured: GI50

Fc1ccc(Nc2nnc(-c3ccccn3)s2)cc1
inactive: M14 > 100 µM | RXF 393 > 100 µM | UACC-257 > 100 µM | OVCAR-3 > 100 µM | DU-145 > 100 µM | NCI-H23 > 100 µM | SK-MEL-2 > 100 µM | SW-620 > 100 µM | A498 > 100 µM | OVCAR-8 > 100 µM | ACHN > 100 µM | HOP-62 > 100 µM | SF-539 > 100 µM | MOLT-4 > 100 µM | HL-60 > 100 µM | TK-10 > 100 µM | MCF7 3.47 µM | SK-MEL-5 > 100 µM

C=CCN(C(=O)OC(C)(C)C)[C@H](C)C(=O)N[C@@H](C)C(=O)OC
inactive: M14 > 100 µM | OVCAR-3 > 100 µM | DU-145 > 100 µM | NCI-H23 > 100 µM | SK-MEL-2 > 100 µM | SW-620 > 100 µM | A498 > 100 µM | OVCAR-8 > 100 µM | ACHN > 100 µM | HOP-62 > 100 µM | SF-539 > 100 µM | MOLT-4 > 100 µM | HL-60 1.2 µM | UO-31 > 100 µM | MCF7 > 100 µM | SK-MEL-5 > 100 µM

COC(=O)[C@@H](OC(C)=O)[C@@H](OC(C)=O)c1nnc2ccc(Cl)nn12
inactive: M14 > 100 µM | RXF 393 > 100 µM | UACC-257 87.9 µM | OVCAR-3 > 100 µM | DU-145 > 100 µM | NCI-H23 > 100 µM | SK-MEL-2 > 100 µM | SW-620 > 100 µM | A498 > 100 µM | OVCAR-8 > 100 µM | ACHN > 100 µM | HOP-62 > 100 µM | SF-539 > 100 µM | MOLT-4 > 100 µM | HL-60 > 100 µM | TK-10 > 100 µM | MCF7 > 100 µM | SK-MEL-5 > 100 µM

COc1cc2c(c(OC)c1)/C(=C/Sc1ccccc1)C(=O)N(C(C)(C)C)C2
inactive: UACC-257 30.6 µM | OVCAR-3 22.5 µM | DU-145 > 100 µM | NCI-H23 26.3 µM | SK-MEL-2 20.2 µM | SW-620 38 µM | A498 32.4 µM | OVCAR-8 25.6 µM | ACHN 35.3 µM | HOP-62 27.5 µM | SF-539 44.7 µM | MOLT-4 21.3 µM | HL-60 25 µM | TK-10 54.6 µM | MCF7 29.8 µM | SK-MEL-5 17.5 µM
